Test results taken from article PMC7432901, “Investigation of Strand-Selective Interaction of SNA-Modified siRNA with AGO2-MID” (International Journal of Molecular Sciences, 2020).

molecular target: T1, AGO2-MID (Homo sapiens, UniProt Q9UKV8); test: isothermal titration calorimetry; assay type: binding; settings: read-out: Ka (× 10^3 M^-1) (converted)
T1 construct: MID domain, residues 432-578; expressed in E. coli BL21(DE3)pLysS as His6-SUMO-TEV fusion (pCold I), His6-SUMO cleaved with proTEV
Excerpt: isothermal titration calorimetry on AGO2-MID

T1 sequence (Q9UKV8 432-578): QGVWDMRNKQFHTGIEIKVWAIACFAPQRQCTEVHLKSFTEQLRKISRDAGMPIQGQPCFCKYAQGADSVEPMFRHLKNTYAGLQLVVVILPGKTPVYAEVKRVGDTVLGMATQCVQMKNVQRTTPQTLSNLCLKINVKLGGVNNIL

| Kd [µM] | SMILES |
| --- | --- |
| 139 | Nc1ncnc2c1ncn2CC(=O)N[C@@H](COP(=O)(O)O)COP(=O)(O)OC[C@H]1O[C@@H](n2cnc3c(N)ncnc32)[C@H](O)[C@@H]1O [p-sArA] |
| 169 | Nc1ncnc2c1ncn2[C@@H]1O[C@H](COP(=O)(O)O)[C@@H](O)[C@H]1O [AMP] |
| 169 | Nc1ncnc2c1ncn2CC(=O)N[C@H](CO)COP(=O)(O)OC[C@H](COP(=O)(O)O)NC(=O)Cn1cnc2c(N)ncnc21 [p-sAsA] |
| 4.35 | Nc1ncnc2c1ncn2[C@@H]1O[C@H](COP(=O)(O)O[C@H]2[C@@H](O)[C@H](n3cnc4c(N)ncnc43)O[C@@H]2COP(=O)(O)O)[C@@H](O)[C@H]1O [p-rArA] |
